From patent US7741496B2, “Ascorbic acid derivatives” (Corum Inc., priority 2008, dated 2010)

Assay: Thermal Stability Test
Format: physicochemical
Details: 45° C. oven for 21 days; compared with ascorbic acid (FIG. 4)
Method: FIG. 4 is a diagram of Thermal Stability Test observed at 45° C. oven for 21 days.
Competitive with 3-O-ethyl-ascorbic acid and Azelaic acid, inventive samples have best effect in tyrsoinase inhibition.

thermal stability: stable than ascorbic acid
Structure (SMILES): CCOC1=C(O)C(=O)O[C@@H]1[C@@H](O)COC(=O)CCCCCCCC(=O)O [Formula (IV), 3-O-ethyl-ascorbyl-6-nonanedioate]
